Experiments:
[1] = biological target: HIV-1 RT p66/p51 heterodimer (Human immunodeficiency virus type 1 group M subtype B, UniProt P04585, C625S/C867S/P588C); experiment: TRF microplate assay of p66/p51 RT heterodimer formation; conditions: compound at 10 μM; dimer formation 6 h; urea diluted 3.5 M to 0.35 M
Protocol: The general principle of the assay involves mixing of His6x-p51 with fluorophore-labeled p66 RT in solution, with subsequent solid-phase capture of resulting His6x-p51/fluorophore-labeled p66 RT heterodimer on Ni^2+-NTA microplates. After washing to remove unbound material, the amount of microplate-associated fluorescence is measured in an appropriate fluorescence plate reader.
In a total volume of 20 μl, mix 100 pmol of purified His6x-p51 RT subunit and 200 pmol of Eu-N1-iodoacetamido chelate labeled p66 RT subunit (i.e., 100 pmol RT p66/p66 homodimer) with urea (prepared in 25 mM Tris-HCl pH 7.5, 20° C., containing 100 mM MgCl2) to provide a final concentration of 3.5 M urea. Incubate this mixture for 1 h at room temperature.
Dilute this solution into 200 μL of a solution of the compound of interest at 10 μM (in 25 mM Tris-HCl pH 7.5, 20° C., containing 50 mM Na2SO4) contained in a well of a 96-well Ni-NTA HiSorb Plate.
The dilution step provides a 10-fold dilution to reduce the urea concentration from 3.5M to 0.35M, thereby allowing formation of the RT p66/p51 heterodimer. Dimer formation is allowed to proceed for 6 h, then the plates are washed 3× with Delfia wash buffer containing 200 μM DTPA. After washing, 200 μL of the Delfia enhancement solution is added to each well, followed by incubation at room temperature for 30 minutes.

[2] = biological target: HIV-1 RT (Human immunodeficiency virus type 1 group M subtype B, UniProt P04585); conditions: Tachedjian et al., 2001, PNAS, 7188-7193; cited from earlier work
[3] = biological target: T1, unlabeled P2C/C38S/C280S p66/p66 RT (Human immunodeficiency virus type 1 group M subtype B, UniProt P04585, C625S/C867S/P588C); experiment: Inhibition of unlabeled P2C/C38S/C280S p66/p66 RT by HIV RT inhibitors; format: biochemical, HIV-1
T1 construct: made in house; host or cells: E. coli JM109 (pKK-RT66-P2C)

[4] = biological target: T2, Eu^3+-labeled P2C/C38S/C280S p66/p66 RT (Human immunodeficiency virus type 1 group M subtype B, UniProt P04585, C625S/C867S/P588C); experiment: Inhibition of Eu3+-labeled P2C/C38S/C280S p66/p66 RT by HIV RT inhibitors; format: biochemical, HIV-1; conditions: P2C/C38S/C280S p66/p66 RT alkylated with Eu-N1-iodoacetamido chelate
T2 construct: made in house; host or cells: E. coli JM109 (pKK-RT66-P2C), then chemical alkylation
Protocol: Purified P2C/C38S/C280S p66/p66 RT was concentrated to approximately 20 μM (˜2.5 mg/ml) in 50 mM Tris-HCl buffer (pH 7.9 at 20° C.) containing 100 mM NaCl and 1 mM TCEP-HCl (Tris(2-carboxyethyl)phosphine hydrochloride (Pierce)) at room temperature. An aliquot of Eu-N1-iodoacetamido chelate protein-modification reagent (prepared as a 5 mM stock solution in DMSO) was added to provide an approximately 20-fold molar excess relative to the p66 subunit concentration. The alkylation reaction was allowed to proceed for up to 6 hours at room temperature. Alternatively, the reaction may be carried out overnight at 4° C. Upon completion of the reaction, an excess of DTT was added to consume unreacted Eu-N 1-iodoacetamido chelate. The alkylated p66/p66 RT was separated from the DTT-reagent conjugate by two passages through a NAPT™ 25 column equilibrated with a 25 mM Tris-HCl buffer (pH 7.5, 20° C.) containing 60 mM MgCl2 and 50% glycerol. The stoichiometry of labeling was generally found to be between 0.7-1 mol of Eu-N1-iodoacetamide per mol of p66 RT subunit (i.e., 1.5-2 mol/mol p66/p66 RT homodimer).

[5] = biological target: T3, WT p66/p66 RT (Human immunodeficiency virus type 1 group M subtype B, UniProt P04585); experiment: Inhibition of WT p66/p66 RT (data not shown); format: biochemical, HIV-1
T3 construct: IPTG-dependent expression of the non-HIS-tagged 66 kDa RT subunit; made in house; host or cells: E. coli JM109 (pKK-RT66WT)
Excerpt: The P2C/C38S/C280S p66/p66 RT chemically alkylated with the Eu-N1-iodoacetamido chelate retains approximately 80% of the RDDP activity of the unmodified protein (Table 1). […] Thus, the genetic and chemical manipulations of RT required to prepare reagents for the dimerization assay appear to have little effect on the response of the enzyme within the parameters of the assay protocol.

Cc1cn([C@@H]2O[C@H](CO[Si](C)(C)C(C)(C)C)[C@@]3(OS(=O)(=O)C=C3N)[C@H]2O[Si](C)(C)C(C)(C)C)c(=O)n(C)c1=O [TSAOm^3T]
TRF signal relative to control (RT dimerization, FIG. 5B) [1]: decreases the signal

Cc1ccnc2c1NC(=O)c1cccnc1N2C1CC1 [Nevirapine]
Effect on dimerization of the HIV-1 RT as reported [2]: chemical enhancers of dimerization

CCn1c(=O)c(C)cn([C@@H]2O[C@H](CO[Si](C)(C)C(C)(C)C)C3(OS(=O)(=O)C=C3N)[C@H]2O[Si](C)(C)C(C)(C)C)c1=O (some centres unmarked) [TSAOe3T]
IC50 [3]: 3 µM
IC50 [4]: 3 µM
Sensitivity of WT p66/p66 RT to inhibition compared with unmodified P2C/C38S/C280S p66/p66 mutant [5]: equally sensitive
